Laboratory results published in the Kinase Knowledgebase extract (Sharma et al. 2016).

The compounds below were run against CDK2 (UniProt P24941) (assay: Enzyme Assay).

| SMILES | IC50 |
| --- | --- |
| O=C(Cc1ccc(Cl)cc1)Nc1n[nH]c2ccc(N3CCCS3(=O)=O)cc12 | < 50 nM |
| O=C(Cc1cccc(Br)c1)Nc1n[nH]c2ccc(N3CCCS3(=O)=O)cc12 | < 50 nM |
| NCCOc1ccc(CC(=O)Nc2n[nH]c3ccc(N4CCCS4(=O)=O)cc23)cc1 | < 100 nM |
| CCNc1cccc(CC(=O)Nc2n[nH]c3ccc(N4CCCS4(=O)=O)cc23)c1 | < 500 nM |
| CN1CCN(S(=O)(=O)c2ccc(CC(=O)Nc3n[nH]c4ccc(N5CCCS5(=O)=O)cc34)cc2)CC1 | < 1000 nM |
| COc1ccc(N2CCN(CC(=O)Nc3n[nH]c4ccc(N5CCCS5(=O)=O)cc34)CC2)cc1 | < 10000 nM |
| CCNc1ccc(CC(=O)Nc2n[nH]c3ccc(N4CCCS4(=O)=O)cc23)cc1 | < 50 nM |
| O=C(CN1CCc2ccccc2C1)Nc1n[nH]c2ccc(N3CCCS3(=O)=O)cc12 | < 1000 nM |
| CCOc1cccc(CC(=O)Nc2n[nH]c3ccc(N4CCCS4(=O)=O)cc23)c1 | < 50 nM |
| O=C(Cc1ccc2ccccc2c1)Nc1n[nH]c2ccc(N3CCCS3(=O)=O)cc12 | < 50 nM |
| O=C(Cc1ccc2c(c1)OCO2)Nc1n[nH]c2ccc(N3CCCS3(=O)=O)cc12 | < 50 nM |
| COc1ccc(CC(=O)Nc2n[nH]c3ccc(N4CCCS4(=O)=O)cc23)cc1 | < 100 nM |
| O=C(Cc1ccc(-c2ccco2)cc1)Nc1n[nH]c2ccc(N3CCCS3(=O)=O)cc12 | < 50 nM |
| O=C(Cc1ccc([N+](=O)[O-])cc1)Nc1n[nH]c2ccc(N3CCCS3(=O)=O)cc12 | < 50 nM |
| CCN(CC)c1nc(CC(=O)Nc2n[nH]c3ccc(N4CCCS4(=O)=O)cc23)cs1 | < 500 nM |
| CCOc1ccc(CC(=O)Nc2n[nH]c3ccc(N4CCCS4(=O)=O)cc23)cc1Cl | < 100 nM |
| O=C(Cc1ccc(N(Cc2ccccc2)Cc2ccccc2)cc1)Nc1n[nH]c2ccc(N3CCCS3(=O)=O)cc12 | < 500 nM |
| O=C(Cc1ccc(Cl)c(Cl)c1)Nc1n[nH]c2ccc(N3CCCS3(=O)=O)cc12 | < 50 nM |
| O=C(Cc1ccc(S(=O)(=O)N2CCOCC2)cc1)Nc1n[nH]c2ccc(N3CCCS3(=O)=O)cc12 | < 100 nM |
| Nc1ccc(CC(=O)Nc2n[nH]c3ccc(N4CCCS4(=O)=O)cc23)cc1 | < 50 nM |
| O=C(Cn1cnc(-c2ccc(Br)cc2)c1)Nc1n[nH]c2ccc(N3CCCS3(=O)=O)cc12 | < 100 nM |
| CC(C)(C)OC(=O)Nc1nc(CC(=O)Nc2n[nH]c3ccc(N4CCCS4(=O)=O)cc23)cs1 | < 100 nM |
| O=C(CN1CCOCC1)Nc1n[nH]c2ccc(N3CCCS3(=O)=O)cc12 | < 10000 nM |
| O=C(Cn1cnc(-c2ccc(-c3ccccc3)cc2)c1)Nc1n[nH]c2ccc(N3CCCS3(=O)=O)cc12 | < 500 nM |
| CCOc1ccc(CC(=O)Nc2n[nH]c3ccc(N4CCCS4(=O)=O)cc23)cc1 | < 50 nM |
| O=C(Cc1ccc(Br)cc1)Nc1n[nH]c2ccc(N3CCCS3(=O)=O)cc12 | < 50 nM |
| O=C(Cn1cnc(-c2ccc3ccccc3c2)c1)Nc1n[nH]c2ccc(N3CCCS3(=O)=O)cc12 | < 50 nM |

| SMILES | IC50 |
| --- | --- |
| CC(=S)Nc1n[nH]c2ccc(N3CCCS3(=O)=O)cc12 | < 50000 nM |
| CC(C)c1ccc(CC(=O)Nc2n[nH]c3ccc(N4CCCS4(=O)=O)cc23)cc1 | < 50 nM |
| CCC(C(=O)Nc1n[nH]c2ccc(N3CCCS3(=O)=O)cc12)c1ccccc1 (stereo not given) | < 100000 nM |
| COCCOCCOCCOc1ccc(CC(=O)Nc2n[nH]c3ccc(N4CCCS4(=O)=O)cc23)cc1 | < 100 nM |
| CSc1ccc(CC(=O)Nc2n[nH]c3ccc(N4CCCS4(=O)=O)cc23)cc1 | < 50 nM |
| CCNc1nc(CC(=O)Nc2n[nH]c3ccc(N4CCCS4(=O)=O)cc23)cs1 | < 500 nM |
| CS(=O)(=O)c1ccc(CC(=O)Nc2n[nH]c3ccc(N4CCCS4(=O)=O)cc23)cc1 | < 50 nM |
| O=C(Cc1ccc(Cn2ccnc2)cc1)Nc1n[nH]c2ccc(N3CCCS3(=O)=O)cc12 | < 1000 nM |
| O=C(Cc1ccc(-c2ccccc2)cc1)Nc1n[nH]c2ccc(N3CCCS3(=O)=O)cc12 | < 50 nM |
| O=C(Cn1cnc2ccccc21)Nc1n[nH]c2ccc(N3CCCS3(=O)=O)cc12 | < 50 nM |
| O=C(Cc1ccc(-c2ccsc2)cc1)Nc1n[nH]c2ccc(N3CCCS3(=O)=O)cc12 | < 50 nM |
| O=C(Cc1ccc(OCc2ccccc2)cc1)Nc1n[nH]c2ccc(N3CCCS3(=O)=O)cc12 | < 100 nM |
| O=C(Cc1ccc(O)cc1)Nc1n[nH]c2ccc(N3CCCS3(=O)=O)cc12 | < 50 nM |
| COc1cc(CC(=O)Nc2n[nH]c3ccc(N4CCCS4(=O)=O)cc23)cc(OC)c1 | < 50 nM |
| CCOc1ccc(CC(=O)Nc2n[nH]c3ccc(N4CCCS4(=O)=O)cc23)cc1S(N)(=O)=O | < 1000 nM |
| O=C(CN1CCN(c2ccccc2)CC1)Nc1n[nH]c2ccc(N3CCCS3(=O)=O)cc12 | < 500 nM |
| CC(=O)Nc1n[nH]c2ccc(N3CCCS3(=O)=O)cc12 | > 100000 nM |
| O=C(Cc1cccc2ccccc12)Nc1n[nH]c2ccc(N3CCCS3(=O)=O)cc12 | < 50 nM |
| O=C(CN1CCCCC1)Nc1n[nH]c2ccc(N3CCCS3(=O)=O)cc12 | < 10000 nM |
| O=S1(=O)CCCN1c1ccc2[nH]nc(NC(Cc3ccccc3)=NO)c2c1 | < 10000 nM |
| Cc1ccccc1CC(=O)Nc1n[nH]c2ccc(N3CCCS3(=O)=O)cc12 | < 100 nM |
| O=C(Cc1ccc(N2CCOCC2)cc1)Nc1n[nH]c2ccc(N3CCCS3(=O)=O)cc12 | < 100 nM |
| Cc1cccc(CC(=O)Nc2n[nH]c3ccc(N4CCCS4(=O)=O)cc23)c1 | < 50 nM |
| O=C(Nc1n[nH]c2ccc(N3CCCS3(=O)=O)cc12)C1(c2ccccc2)CCCC1 | < 100000 nM |
| CCN(CC)c1ccc(CC(=O)Nc2n[nH]c3ccc(N4CCCS4(=O)=O)cc23)cc1 | < 50 nM |
| Nc1nc(CC(=O)Nc2n[nH]c3ccc(N4CCCS4(=O)=O)cc23)cs1 | < 500 nM |
| O=C(Cc1csc(NCc2ccc(OCc3ccccc3)cc2)n1)Nc1n[nH]c2ccc(N3CCCS3(=O)=O)cc12 | < 10000 nM |

| SMILES | IC50 |
| --- | --- |
| CN1CCN(Cc2ccc(CC(=O)Nc3n[nH]c4ccc(N5CCCS5(=O)=O)cc34)cc2)CC1 | < 100 nM |
| CCOc1ccc(CC(=O)Nc2n[nH]c3ccc(N4CCCS4(=O)=O)cc23)cc1S(=O)(=O)N1CCN(C)CC1 | < 1000 nM |
| CC(=NO)Nc1n[nH]c2ccc(N3CCCS3(=O)=O)cc12 | < 100000 nM |
| CCOc1ccc(CC(=O)Nc2n[nH]c3ccc(N4CCCS4(=O)=O)cc23)cc1S(=O)(=O)N1CCOCC1 | < 1000 nM |
| O=C(Cc1ccc(-c2ccncc2)cc1)Nc1n[nH]c2ccc(N3CCCS3(=O)=O)cc12 | < 50 nM |
| CC(=O)Nc1nc(CC(=O)Nc2n[nH]c3ccc(N4CCCS4(=O)=O)cc23)cs1 | < 10000 nM |
| O=C(Cc1cccc(Cl)c1)Nc1n[nH]c2ccc(N3CCCS3(=O)=O)cc12 | < 50 nM |
| O=C(Nc1n[nH]c2ccc(N3CCCS3(=O)=O)cc12)C(c1ccccc1)C1CCCC1 (stereo not given) | < 100000 nM |
| Cc1ccc(CC(=O)Nc2n[nH]c3ccc(N4CCCS4(=O)=O)cc23)cc1 | < 50 nM |
| Nc1cccc(CC(=O)Nc2n[nH]c3ccc(N4CCCS4(=O)=O)cc23)c1 | < 50 nM |
| CCOc1ccccc1N1CCN(CC(=O)Nc2n[nH]c3ccc(N4CCCS4(=O)=O)cc23)CC1 | < 10000 nM |
| O=C(Cc1ccc(CN2CCOCC2)cc1)Nc1n[nH]c2ccc(N3CCCS3(=O)=O)cc12 | < 100 nM |
| O=S1(=O)CCCN1c1ccc2[nH]nc(NC(=S)Cc3ccccc3)c2c1 | < 10000 nM |
| CC(=O)c1ccc(N2CCN(CC(=O)Nc3n[nH]c4ccc(N5CCCS5(=O)=O)cc34)CC2)cc1 | < 10000 nM |
| O=C(Cc1ccc(F)cc1)Nc1n[nH]c2ccc(N3CCCS3(=O)=O)cc12 | < 50 nM |
| CCOCCOCCOc1ccc(CC(=O)Nc2n[nH]c3ccc(N4CCCS4(=O)=O)cc23)cc1 | < 100 nM |
| CNc1ccc(CC(=O)Nc2n[nH]c3ccc(N4CCCS4(=O)=O)cc23)cc1 | < 50 nM |
| O=C(Cn1cnc(-c2ccccc2)c1)Nc1n[nH]c2ccc(N3CCCS3(=O)=O)cc12 | < 50 nM |
| CCOc1ccc(CC(=O)Nc2n[nH]c3ccc(N4CCCS4(=O)=O)cc23)cc1[N+](=O)[O-] | < 50 nM |
| CN1CCN(CC(=O)Nc2n[nH]c3ccc(N4CCCS4(=O)=O)cc23)CC1 | < 10000 nM |
| CCN(CC)c1cccc(CC(=O)Nc2n[nH]c3ccc(N4CCCS4(=O)=O)cc23)c1 | < 500 nM |
| O=C(CN1CCN(c2ccc(Cl)cc2)CC1)Nc1n[nH]c2ccc(N3CCCS3(=O)=O)cc12 | < 10000 nM |
| O=C(CCc1ccccc1)Nc1n[nH]c2ccc(N3CCCS3(=O)=O)cc12 | < 1000 nM |
| O=C(Cc1ccc(Oc2ccccc2)cc1)Nc1n[nH]c2ccc(N3CCCS3(=O)=O)cc12 | < 100 nM |
| O=C(Cc1ccccc1)Nc1n[nH]c2ccc(N3CCCS3(=O)=O)cc12 | < 50 nM |
| O=C(Cc1cccc([N+](=O)[O-])c1)Nc1n[nH]c2ccc(N3CCCS3(=O)=O)cc12 | < 50 nM |
